pEC50, pIC50: −log10 of the molar value.
Assays:
[1] = system: U-937 human lymphoma cell line; assay: cells
Protocol: (§1) Briefly, cells were seeded in 96 well microtiter plates at a density of 50000 cells per well in 150 μL of culture medium and incubated for 4-6 hours in drug-free medium before treatment with vehicle alone or test compounds for 72 hours.
(§2) After incubation, the cytotoxic effect was evaluated using a MTT reduction assay. 50 μL of MTT solution (1 mg/mL) were added to the wells and incubated for 15-17 hours at 37° C. until formazan crystals were formed. After gently removing the culture medium, DMSO was added to dissolve the insoluble purple formazan product into a colored solution. […] Results were expressed as percentage of control cell growth. The EC50 values (half-maximal effective concentration) used for the combination studies were calculated using Prism v5.02 software (GraphPad). EC50 was expressed as molar concentration and represented the mean of at least three independent assays.
(§3) Using these starting concentrations, constant serial dilutions were performed to generate the concentration-response curves for each set of drugs, alone and in combination.
(§4) Based on this equation, the term “combination index” (CI) is used as a quantitative measure of the degree of drug interactions. […] CI values were calculated by solving the equation for different values of fa (i.e., for different degrees of cell groth inhibition).
(§5) Data were analyzed using CalcuSyn software (Biosoft, Cambridge, UK). For statistical analysis and graphs Prism software (GraphPad, San Diego, USA) was used. All the results represent the mean of at least three independent experiments.
(§6) Additional serial dilutions were prepared in serum-free culture medium to achieve a final 4× concentration. Aliquots of 50 μL of each diluted compound were added per well.
(§7) In the second set of assays, concentration-response curves for the agents tested, both alone and in two-drug combination, were performed.

[2] = system: RAMOS human lymphoma cell line; assay: cells
Protocol: as §1, §2, §3, §4, §5, §6, §7

[3] = system: PANC-1 human pancreatic carcinoma cell line; assay: cells
Protocol: (§8) a. […] Briefly, cells were harvested and seeded in 96 well microtiter plates at a density of 5,000 cells in 150 μL of culture medium and incubated for 24 hours in drug-free medium before treatment with vehicle alone or test compounds for 72 h.
(§9) The cytotoxic effect was measured by the MTT reduction assay, in which 3-(4,5-Dimethylthiazol-2-yl)-2,5-diphenyltetrazolium bromide, a tetrazole, which is reduced to purple formazan in the mitochondria of living cells, was used. MTT (50 μL of 1 mg/mL stock solution) was added to the wells and incubated for 8 hours at 37° C. until formazan crystals were formed. After gently removing the culture medium, DMSO was added to dissolve the insoluble purple formazan product into a colored solution. […] Results were expressed as percentage of control cell growth.
(§10) b. In a second set of assays, A549 human tumor cells were incubated with PM01183 in combination with each of the agents mentioned above.
(§11) As a visual aid, response values were plotted on a scatter plot with dose ratios given on the x-axis and % response values on the y-axis. […] In cases where response values at the two endpoints were approximately equivalent, points lying above or below this predicted line of additivity could be interpreted as representing antagonistic or synergistic drug interaction, respectively.
as §6
PANC-1 was the human pancreatic carcinoma cell line selected for this assay.

[4] = system: RXF-393 human kidney carcinoma cell line; assay: cells
[5] = system: MDA-MB-231 human breast adenocarcinoma cell line; assay: cells
[6] = system: HepG2 human hepatocellular liver carcinoma cell line; assay: MTT cytotoxicity assay in HepG2 cells: IC50 of single agents and combinations with PM01183; format: cell-based; details: Homo sapiens; HepG2, 72 hours drug exposure, MTT; read-out: IC50
[7] = system: A673 human rhabdomyosarcoma cell line; assay: cells
Procedure, shortened: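 A673 cells seeded at 5,000 per well, grown 24 h drug-free, then exposed to compounds for 72 h. Viability by MTT reduction (8 h, 37 °C), formazan dissolved in DMSO. Results expressed as percentage of control cell growth.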

[8] = system: PC-3 human prostate cancer cell line; assay: cells
Procedure, shortened: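 Cells seeded at 5,000/well, grown 24 h drug-free, then exposed to vehicle or test compounds for 72 h. Viability by MTT reduction (8 h, 37 °C), formazan dissolved in DMSO. Values given as percentage of control cell growth.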

[9] = system: IGROV-1 human ovarian adenocarcinoma cell line; assay: cells
[10] = system: HGC-27 human gastric carcinoma cell line; assay: cells
[11] = system: A549 human lung carcinoma cell line; assay: MTT cytotoxicity assay in A549 cells: IC50 of single agents and combinations with PM01183; format: cell-based; details: Homo sapiens; A549, 72 hours drug exposure, MTT; read-out: IC50
Procedure, shortened: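 A549 cells seeded at 5,000 per well, grown 24 h drug-free, then exposed to vehicle or compounds for 72 h, either singly or combined with PM01183. Combination responses plotted against dose ratio relative to an additivity line.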

[12] = system: MOLT-4 human leukemia cell line; assay: cells
Protocol: as §6
(§12) JURKAT and MOLT-4 were the human leukemia cell lines selected for this assay, which were obtained from the American Type Culture Collection (ATCC).
as §1, §2
(§13) b. In a second set of experiments, concentration-response curves for the agents tested, both alone and in two-drug combination, were performed, using the same methodology described in the previous paragraph.
as §3, §4, §5

[13] = system: JURKAT human leukemia cell line; assay: cells
Protocol: as §6, §12, §1, §2, §13, §3, §4, §5

[14] = system: SK-MEL-2 human melanoma cell line; assay: cells
Protocol: as §8, §9, §10, §11, §6
SK-MEL-2 was the human melanoma cell line selected for this assay.

[15] = system: HT-29 human colon adenocarcinoma cell line; assay: cells; details: HT-29, 72 hours drug exposure, MTT
Procedure, shortened: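 HT-29 cells (5,000/well) were attached for 24 h, then exposed to vehicle or compounds for 72 h. Viability was read by MTT reduction, with 8 h MTT at 37° C and formazan dissolved in DMSO. Values are % of control cell growth.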

[16] = system: U87-MG human glioblastoma cell line; assay: cells; details: U87-MG, 72 hours drug exposure, MTT
[17] = RXF-393, 72 hours drug exposure, MTT
[18] = A673, 72 hours drug exposure, MTT
[19] = IGROV-1, 72 hours drug exposure, MTT
[20] = HGC-27, 72 hours drug exposure, MTT

## COc1c(C)cc2c(c1O)[C@@H]1[C@@H]3Cc4c(OC(C)=O)c(C)c5c(c4[C@H](CNC(=O)/C=C/c4cccc(C(F)(F)F)c4)N3[C@@H](O)[C@H](C2)N1C)OCO5 [PM00104]
[1]; Homo sapiens, U-937, 72 h
  pEC50: 8.35
[2]; Homo sapiens, Ramos, 72 h
  pEC50: 8.36
[3]; Homo sapiens, PANC-1, 72 h
  pIC50: 8.10
[4]; Homo sapiens, RXF 393, 72 h
  pIC50: 8.27
[5]; Homo sapiens, MDA-MB-231, 72 h
  pIC50: 9.00
[6]
  pIC50: 8.52
[7]; Homo sapiens, A673, 72 h
  pIC50: 8.52
[8]; Homo sapiens, PC-3, 72 h
  pIC50: 8.15
[9]; Homo sapiens, IGROV-1, 72 h
  pIC50: 8.48
[10]; Homo sapiens, HGC-27, 72 h
  pIC50: 8.49
[11]
  pIC50: 8.15
[12]; Homo sapiens, MOLT-4, 72 h
  pEC50: 8.81
[13]; Homo sapiens, Jurkat, 72 h
  pEC50: 8.32
[14]; Homo sapiens, SK-MEL-2, 72 h
  pIC50: 8.70

## C/C=C1\NC(=O)[C@H](Cc2ccccc2)NC(=O)[C@@H](C(C)C)NC(=O)[C@@H]([C@@H](C)CC)NC(=O)[C@H](NC(=O)[C@H](NC(=O)[C@H](CCCN)NC(=O)[C@H]2CCCN2C(=O)[C@H](NC(=O)[C@@H](NC(=O)[C@@H](NC(=O)[C@H](NC(=O)CC[C@@H](C)CC)C(C)C)[C@@H](C)O)C(C)C)C(C)C)[C@@H](C)CC)[C@@H](C)OC(=O)[C@H](C(C)C)NC1=O [PM02734, (4S)-MeHex-D-Val-L-Thr-L-Val-D-Val-D-Pro-L-Orn-D-allo-Ile-cyclo(D-allo-Thr-D-allo-Ile-D-Val-L-Phe-Z-Dhb-L-Val)]
[1]; U-937 tumor cell line, single agent
  pEC50: 5.16
[2]; RAMOS, 72 hours exposure, MTT
  pEC50: 4.87
[15]
  pIC50: 6.67
[3]; PANC-1, 72 hours drug exposure, MTT
  pIC50: 5.05
[4]; [17]
  pIC50: 5.30
[5]; 72 h
  pIC50: 5.55
[16]
  pIC50: 5.39
[7]; [18]
  pIC50: 5.44
[8]; 72 h
  pIC50: 6.27
[9]; [19]
  pIC50: 6.48
[10]; [20]
  pIC50: 6.02
[12]; MOLT-4, 72 hours exposure, MTT
  pEC50: 4.84
[13]; JURKAT, 72 hours exposure, MTT
  pEC50: 5.26
[14]; SK-MEL-2, 72 hours drug exposure, MTT
  pIC50: 5.75

## aplidine
[15]
  pIC50: 8.75
[4]; [17]
  pIC50: 8.82
[16]
  pIC50: 8.42
[7]; [18]
  pIC50: 8.67
[9]; [19]
  pIC50: 8.82
[10]; [20]
  pIC50: 8.05
[12]; MOLT-4, 72 hours exposure, MTT
  pEC50: 8.90
[13]; JURKAT, 72 hours exposure, MTT
  pEC50: 7.86
